# Assay results: patent US20240182531A1, “KV1.3 Blockers” (priority 2021, published 2024)
# Where a SMILES comes first, the peptide text is derived from it. Bridges are numbered along the chain shown (N, C = ends). [ ]: non-standard residue; d: D form. Nle = CCCC[C@H](N)C(=O)O
# How the values were obtained:
# human Kv1.1 = molecular target: T1, human Kv1.1 (Homo sapiens, UniProt Q09470); test: cell-based; conditions: ratio of patch clamp IC50 values
# T1 construct: expressed in transfected cells; host or cells: CHO
# human Kv1.2 = molecular target: T2, human Kv1.2 (Homo sapiens, UniProt P16389); test: cell-based; conditions: ratio of patch clamp IC50 values
# T2 construct: expressed in transfected cells; host or cells: CHO
# human Kv1.6 = molecular target: T3, human Kv1.6 (Homo sapiens, UniProt P17658); test: cell-based; conditions: ratio of patch clamp IC50 values
# T3 construct: expressed in transfected cells; host or cells: CHO
# Rat whole blood = Rat whole blood (Rattus norvegicus, UniProt P15384); type: cell-based; conditions: IL-17A release, thapsigargin, 24 Hr, at least 2 replicates
# Sequence of Rat whole blood (P15384 whole entry): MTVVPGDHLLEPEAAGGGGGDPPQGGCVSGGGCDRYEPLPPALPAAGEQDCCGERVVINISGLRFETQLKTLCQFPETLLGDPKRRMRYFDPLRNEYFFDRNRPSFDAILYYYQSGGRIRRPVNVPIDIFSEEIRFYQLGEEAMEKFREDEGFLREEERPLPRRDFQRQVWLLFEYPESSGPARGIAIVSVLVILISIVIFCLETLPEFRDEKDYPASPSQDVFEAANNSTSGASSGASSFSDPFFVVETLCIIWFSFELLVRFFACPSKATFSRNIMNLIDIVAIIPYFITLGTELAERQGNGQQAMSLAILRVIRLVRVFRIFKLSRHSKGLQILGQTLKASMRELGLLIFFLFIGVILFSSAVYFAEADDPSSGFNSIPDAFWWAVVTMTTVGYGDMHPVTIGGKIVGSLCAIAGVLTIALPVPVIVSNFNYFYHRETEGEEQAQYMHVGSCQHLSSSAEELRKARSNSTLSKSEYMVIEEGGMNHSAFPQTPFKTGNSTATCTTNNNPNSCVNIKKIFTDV
# T2 sequence (P16389 whole entry): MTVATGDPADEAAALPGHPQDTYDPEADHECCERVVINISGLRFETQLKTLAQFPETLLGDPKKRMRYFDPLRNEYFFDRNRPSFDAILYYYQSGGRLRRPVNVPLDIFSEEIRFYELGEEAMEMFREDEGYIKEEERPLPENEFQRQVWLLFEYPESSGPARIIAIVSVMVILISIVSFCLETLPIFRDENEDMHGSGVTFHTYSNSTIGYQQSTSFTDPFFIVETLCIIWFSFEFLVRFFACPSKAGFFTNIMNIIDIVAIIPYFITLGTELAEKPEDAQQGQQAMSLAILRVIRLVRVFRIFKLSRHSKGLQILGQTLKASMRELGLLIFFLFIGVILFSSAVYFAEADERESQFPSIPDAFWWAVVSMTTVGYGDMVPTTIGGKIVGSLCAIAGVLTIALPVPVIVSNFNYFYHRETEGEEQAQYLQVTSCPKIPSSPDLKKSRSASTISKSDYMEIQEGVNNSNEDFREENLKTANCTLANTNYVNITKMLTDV
# T1 sequence (Q09470 whole entry): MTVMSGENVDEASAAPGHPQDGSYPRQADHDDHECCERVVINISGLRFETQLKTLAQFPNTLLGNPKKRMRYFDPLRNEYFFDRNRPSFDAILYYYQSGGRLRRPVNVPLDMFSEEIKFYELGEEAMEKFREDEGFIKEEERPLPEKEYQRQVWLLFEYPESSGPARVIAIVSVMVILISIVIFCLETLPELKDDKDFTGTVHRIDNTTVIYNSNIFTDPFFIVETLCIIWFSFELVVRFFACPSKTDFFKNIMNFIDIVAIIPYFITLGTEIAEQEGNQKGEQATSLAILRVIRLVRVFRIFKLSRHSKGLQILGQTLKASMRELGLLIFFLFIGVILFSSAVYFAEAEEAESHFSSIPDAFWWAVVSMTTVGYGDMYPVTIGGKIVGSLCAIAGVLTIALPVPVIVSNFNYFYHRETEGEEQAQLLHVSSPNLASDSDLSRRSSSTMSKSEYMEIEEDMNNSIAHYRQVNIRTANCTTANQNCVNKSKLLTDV
# T3 sequence (P17658 whole entry): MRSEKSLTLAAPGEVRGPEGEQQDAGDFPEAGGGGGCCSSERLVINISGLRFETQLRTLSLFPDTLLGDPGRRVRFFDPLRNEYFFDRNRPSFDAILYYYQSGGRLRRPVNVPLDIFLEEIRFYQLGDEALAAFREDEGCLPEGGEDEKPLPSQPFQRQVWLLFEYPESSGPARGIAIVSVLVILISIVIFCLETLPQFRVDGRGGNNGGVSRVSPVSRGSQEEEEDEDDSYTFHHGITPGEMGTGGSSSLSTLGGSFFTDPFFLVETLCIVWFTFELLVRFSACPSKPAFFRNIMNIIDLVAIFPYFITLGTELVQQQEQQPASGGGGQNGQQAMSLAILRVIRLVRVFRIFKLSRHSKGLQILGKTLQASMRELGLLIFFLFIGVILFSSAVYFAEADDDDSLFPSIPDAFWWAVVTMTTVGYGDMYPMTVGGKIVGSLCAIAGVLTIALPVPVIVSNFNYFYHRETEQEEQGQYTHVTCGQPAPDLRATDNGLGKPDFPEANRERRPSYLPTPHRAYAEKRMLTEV
Compound,Selectivity ratio Kv1.1/Kv1.3 (human Kv1.1),Selectivity ratio Kv1.2/Kv1.3 (human Kv1.2),Selectivity ratio Kv1.6/Kv1.3 (human Kv1.6),IC50 (Rat whole blood) [nM]
"CC[C@H](C)[C@@H]1NC(=O)[C@H](C)NC(=O)[C@H](CCCCN)NC(=O)[C@H](CC(C)C)NC(=O)[C@@H]2CSSC[C@@H](C(=O)N[C@@H](Cc3ccc(O)cc3)C(=O)N3CCC[C@H]3C(=O)N[C@@H](CCCNC(=N)N)C(N)=O)NC(=O)[C@H](CCCCN)NC(=O)[C@@H]3CSSC[C@H](NC(=O)[C@H](CCC(=O)O)NC(=O)[C@H](C(C)C)NC(=O)[C@H](CO)NC(=O)[C@H](C)NC(=O)[C@H](CO)NC(=O)[C@@H](NC(=O)[C@H](CCCNC(=N)N)NC(=O)[C@H](CCSC)NC(=O)[C@H](CC(=O)O)NC(=O)[C@H](CCSC)NC(=O)[C@@H](N)CC(N)=O)CSSC[C@H](NC(=O)[C@H](CCCCN)NC(=O)CNC(=O)[C@H](Cc4ccccc4)NC(=O)[C@H]([C@@H](C)CC)NC(=O)[C@H](CO)NC(=O)CNC1=O)C(=O)N[C@@H](CCSC)C(=O)N[C@@H](CC(N)=O)C(=O)NCC(=O)N[C@@H](CCCCN)C(=O)N3)C(=O)N[C@@H](CCCCN)C(=O)N[C@@H](CCC(N)=O)C(=O)N[C@@H](CCCCN)C(=O)N2 [compound 40] (H-NMDMRCSASVECKQKCLKAIGSIFGKCMNGKCKCYPR-NH2; disulfide 6-27, 12-32, 16-34)",>9700,1422,>9700,1.2
"CC[C@H](C)[C@@H]1NC(=O)[C@H](C)NC(=O)[C@H](CCCCN)NC(=O)[C@H](CC(C)C)NC(=O)[C@@H]2CSSC[C@@H](C(=O)N[C@@H](Cc3ccc(O)cc3)C(=O)N3CCC[C@H]3C(=O)N[C@@H](CCCNC(=N)N)C(N)=O)NC(=O)[C@H](CCCCN)NC(=O)[C@@H]3CSSC[C@H](NC(=O)[C@H](CCC(=O)O)NC(=O)[C@H](C(C)C)NC(=O)[C@H](CO)NC(=O)[C@H](C)NC(=O)[C@H](CO)NC(=O)[C@@H](NC(=O)[C@H](CCCNC(=N)N)NC(=O)[C@H](CCSC)NC(=O)[C@H](CC(=O)O)NC(=O)[C@H](CCSC)NC(=O)[C@@H](N)CC(N)=O)CSSC[C@H](NC(=O)[C@H](CCCCN)NC(=O)CNC(=O)[C@H](Cc4ccccc4)NC(=O)[C@H]([C@@H](C)CC)NC(=O)[C@H](CO)NC(=O)CNC1=O)C(=O)N[C@@H](CCSC)C(=O)N[C@@H](CC(N)=O)C(=O)N[C@@H](CCCCN)C(=O)N[C@@H](CCCCN)C(=O)N3)C(=O)N[C@@H](C)C(=O)N[C@@H](CCC(N)=O)C(=O)N[C@@H](CCCCN)C(=O)N2 [compound 34] (H-NMDMRCSASVECAQKCLKAIGSIFGKCMNKKCKCYPR-NH2; disulfide 6-27, 12-32, 16-34)",>22000,4897,>22000,0.41
"CCCC[C@@H]1NC(=O)[C@@H]2CSSC[C@H](N)C(=O)N[C@@H](CO)C(=O)N[C@@H](C)C(=O)N[C@@H](CO)C(=O)N[C@@H](C(C)C)C(=O)N[C@@H](CCC(=O)O)C(=O)N[C@H]3CSSC[C@H](NC(=O)[C@H](CCCCN)NC(=O)[C@H](CCCCN)NC(=O)[C@H](CC(N)=O)NC1=O)C(=O)N[C@@H](CCCCN)C(=O)N[C@H](C(=O)N[C@@H](Cc1ccc(O)cc1)C(=O)N1CCC[C@H]1C(=O)N[C@@H](CCCNC(=N)N)C(N)=O)CSSC[C@H](NC(=O)[C@H](CCCCN)NC(=O)[C@H](CCC(N)=O)NC(=O)[C@H](CCCCN)NC3=O)C(=O)N[C@@H](CC(C)C)C(=O)N[C@@H](CCCCN)C(=O)N[C@@H](C)C(=O)N[C@@H]([C@@H](C)CC)C(=O)NCC(=O)N[C@@H](CO)C(=O)N[C@@H]([C@@H](C)CC)C(=O)N[C@@H](Cc1ccccc1)C(=O)NCC(=O)N[C@@H](CCCCN)C(=O)N2 [compound 98] (H-CSASVECKQKCLKAIGSIFGKC[Nle]NKKCKCYPR-NH2; disulfide 1-22, 7-27, 11-29)",>7000,>7000,>7000,1.6
"CCCC[C@@H]1NC(=O)[C@@H]2CSSC[C@H](NC(=O)[C@H](CCCNC(=N)N)NC(=O)[C@H](CCCC)NC(=O)[C@H](CC(=O)O)NC(=O)[C@H](CCCC)NC(=O)[C@@H](N)CC(N)=O)C(=O)N[C@@H](CCCNC(=N)N)C(=O)N[C@@H](C)C(=O)N[C@@H](CO)C(=O)N[C@@H](C(C)C)C(=O)N[C@@H](CCC(=O)O)C(=O)N[C@H]3CSSC[C@H](NC(=O)[C@H](CCCCN)NC(=O)[C@H](CCCCN)NC(=O)[C@H](CC(N)=O)NC1=O)C(=O)N[C@@H](CCCCN)C(=O)N[C@H](C(=O)N[C@@H](Cc1ccc(O)cc1)C(=O)N1CCC[C@H]1C(=O)N[C@@H](CCCNC(=N)N)C(N)=O)CSSC[C@H](NC(=O)[C@H](CCCCN)NC(=O)[C@H](CCC(N)=O)NC(=O)[C@H](CCCCN)NC3=O)C(=O)N[C@@H](CC(C)C)C(=O)N[C@@H](CCCCN)C(=O)N[C@@H](C)C(=O)N[C@@H]([C@@H](C)CC)C(=O)NCC(=O)N[C@@H](CO)C(=O)N[C@@H]([C@@H](C)CC)C(=O)N[C@@H](Cc1ccccc1)C(=O)NCC(=O)N[C@@H](CCCCN)C(=O)N2 [compound 46] (H-N[Nle]D[Nle]RCRASVECKQKCLKAIGSIFGKC[Nle]NKKCKCYPR-NH2; disulfide 6-27, 12-32, 16-34)",>18600,674,1954,0.91
"CCCC[C@@H]1NC(=O)[C@@H]2CSSC[C@H](NC(C)=O)C(=O)N[C@@H](CO)C(=O)N[C@@H](C)C(=O)N[C@@H](CO)C(=O)N[C@@H](C(C)C)C(=O)N[C@@H](CCC(=O)O)C(=O)N[C@H]3CSSC[C@H](NC(=O)[C@H](CCCCN)NC(=O)[C@H](CCCCN)NC(=O)[C@H](CC(N)=O)NC1=O)C(=O)N[C@@H](CCCCN)C(=O)N[C@H](C(=O)N[C@@H](Cc1ccc(O)cc1)C(=O)N1CCC[C@H]1C(=O)N[C@@H](CCCNC(=N)N)C(N)=O)CSSC[C@H](NC(=O)[C@H](CCCCN)NC(=O)[C@H](CCC(N)=O)NC(=O)[C@H](CCCCN)NC3=O)C(=O)N[C@@H](CC(C)C)C(=O)N[C@@H](CCCCN)C(=O)N[C@@H](C)C(=O)N[C@@H]([C@@H](C)CC)C(=O)NCC(=O)N[C@@H](CO)C(=O)N[C@@H]([C@@H](C)CC)C(=O)N[C@@H](Cc1ccccc1)C(=O)NCC(=O)N[C@@H](CCCCN)C(=O)N2 [compound 99] (Ac-CSASVECKQKCLKAIGSIFGKC[Nle]NKKCKCYPR-NH2; disulfide 1-22, 7-27, 11-29)",>12400,1591,>12400,0.88
"CC[C@H](C)[C@@H]1NC(=O)[C@H](C)NC(=O)[C@H](CCCCN)NC(=O)[C@H](CC(C)C)NC(=O)[C@@H]2CSSC[C@@H](C(=O)N[C@@H](Cc3ccc(O)cc3)C(=O)N3CCC[C@H]3C(=O)N[C@@H](CCCNC(=N)N)C(N)=O)NC(=O)[C@H](CCCCN)NC(=O)[C@@H]3CSSC[C@H](NC(=O)[C@H](CCC(=O)O)NC(=O)[C@H](C(C)C)NC(=O)[C@H](CO)NC(=O)[C@H]([C@@H](C)CC)NC(=O)[C@H](CO)NC(=O)[C@@H](NC(=O)[C@H](CCCNC(=N)N)NC(=O)[C@H](CCSC)NC(=O)[C@H](CC(=O)O)NC(=O)[C@H](CCSC)NC(=O)[C@@H](N)CC(N)=O)CSSC[C@H](NC(=O)[C@H](CCCCN)NC(=O)CNC(=O)[C@H](Cc4ccccc4)NC(=O)[C@H]([C@@H](C)CC)NC(=O)[C@H](CO)NC(=O)CNC1=O)C(=O)N[C@@H](CCSC)C(=O)N[C@@H](CC(N)=O)C(=O)N[C@@H](CCCCN)C(=O)N[C@@H](CCCCN)C(=O)N3)C(=O)N[C@@H](CCCCN)C(=O)N[C@@H](CCC(N)=O)C(=O)N[C@@H](CCCCN)C(=O)N2 [compound 30] (H-NMDMRCSISVECKQKCLKAIGSIFGKCMNKKCKCYPR-NH2; disulfide 6-27, 12-32, 16-34)",>11800,169,>11800,0.61
"CCCC[C@@H]1NC(=O)[C@@H]2CSSC[C@H](NC(=O)[C@H](CCCNC(=N)N)NC(=O)[C@H](CCCC)NC(=O)[C@H](CC(=O)O)NC(=O)[C@H](CCCC)NC(=O)[C@@H](N)CC(N)=O)C(=O)N[C@@H](CO)C(=O)N[C@@H](C)C(=O)N[C@@H](CO)C(=O)N[C@@H](C(C)C)C(=O)N[C@@H](CCC(=O)O)C(=O)N[C@H]3CSSC[C@H](NC(=O)[C@H](CCCCN)NC(=O)[C@H](CCCCN)NC(=O)[C@H](CC(N)=O)NC1=O)C(=O)N[C@@H](CCCCN)C(=O)N[C@H](C(=O)N[C@@H](Cc1ccc(O)cc1)C(=O)N1CCC[C@H]1C(=O)N[C@@H](CCCNC(=N)N)C(N)=O)CSSC[C@H](NC(=O)[C@H](CCCCN)NC(=O)[C@H](CCC(N)=O)NC(=O)[C@H](CCCCN)NC3=O)C(=O)N[C@@H](CC(C)C)C(=O)N[C@@H](CCCCN)C(=O)N[C@@H](C)C(=O)N[C@@H]([C@@H](C)CC)C(=O)NCC(=O)N[C@@H](CO)C(=O)N1CCC[C@H]1C(=O)N[C@@H](Cc1ccccc1)C(=O)NCC(=O)N[C@@H](CCCCN)C(=O)N2 [compound 62] (H-N[Nle]D[Nle]RCSASVECKQKCLKAIGSPFGKC[Nle]NKKCKCYPR-NH2; disulfide 6-27, 12-32, 16-34)",>11600,1740,9102,0.44
